Data: PubChem BioAssay AID1963838 (Molecular Pharmacology Branch, DTP, NCI, 2024)

Test system: 855422-203-R-J1-PDC complex spheroid viability
Assay: Anticancer human tumor 855422-203-R-J1-PDC patient-derived bladder carcinoma cell line growth inhibition [POLQ]
Conditions: for IC50: curve of first compound; for viability, T/C: stronger effect = lower value
Procedure, shortened: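 Complex spheroid viability model combining PDC tumour cells with endothelial (HUVEC) and MSC stromal cells. Novobiocin, ART-558 or RP6685 were tested singly and in combination with standard and investigational anticancer drugs. Each was titrated in half-log steps from near clinical Cmax, or from 10 microM where Cmax was unknown.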

[1] = second compound 0.0316 µM, first compound 0.0316 µM
[2] = second compound 0.0316 µM, first compound 0.1 µM
[3] = second compound 0.0316 µM, first compound 0.316 µM
[4] = second compound 0.0316 µM, first compound 1 µM
[5] = second compound 0.0316 µM, first compound 3.16 µM
[6] = second compound 0.0316 µM, first compound 10 µM
[7] = second compound 0.1 µM, first compound 0.0316 µM
[8] = second compound 0.1 µM, first compound 0.1 µM
[9] = second compound 0.1 µM, first compound 0.316 µM
[10] = second compound 0.1 µM, first compound 1 µM
[11] = second compound 0.1 µM, first compound 3.16 µM
[12] = second compound 0.1 µM, first compound 10 µM
[13] = second compound 0.316 µM, first compound 0.0316 µM
[14] = second compound 0.316 µM, first compound 0.1 µM
[15] = second compound 0.316 µM, first compound 0.316 µM
[16] = second compound 0.316 µM, first compound 1 µM
[17] = second compound 0.316 µM, first compound 3.16 µM
[18] = second compound 0.316 µM, first compound 10 µM
[19] = second compound 1 µM, first compound 0.0316 µM
[20] = second compound 1 µM, first compound 0.1 µM
[21] = second compound 1 µM, first compound 0.316 µM
[22] = second compound 1 µM, first compound 1 µM
[23] = second compound 1 µM, first compound 3.16 µM
[24] = second compound 1 µM, first compound 10 µM
[25] = second compound 3.16 µM, first compound 0.0316 µM
[26] = second compound 3.16 µM, first compound 0.1 µM
[27] = second compound 3.16 µM, first compound 0.316 µM
[28] = second compound 3.16 µM, first compound 1 µM
[29] = second compound 3.16 µM, first compound 3.16 µM
[30] = second compound 3.16 µM, first compound 10 µM
[31] = second compound 10 µM, first compound 0.0316 µM
[32] = second compound 10 µM, first compound 0.1 µM
[33] = second compound 10 µM, first compound 0.316 µM
[34] = second compound 10 µM, first compound 1 µM
[35] = second compound 10 µM, first compound 3.16 µM
[36] = second compound 10 µM, first compound 10 µM
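Also: spheroids exposed to compounds for seven days before readout.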

`CC(C)n1c(=O)n(C)c2cnc3cc(F)c(-c4ccc(OCCCN5CCCCC5)nc4)cc3c21` + COC1C(OC(N)=O)C(O)C(Oc2ccc3c(O)c(NC(=O)c4ccc(O)c(CC=C(C)C)c4)c(=O)oc3c2C)OC1(C)C was tested, and the IC50 (second compound 0.0316 µM) was over 10 µM, the IC50 (second compound 0.1 µM) was over 10 µM and the IC50 (second compound 0.316 µM) was over 10 µM. The IC50 (second compound 1 µM) was over 10 µM, the IC50 (second compound 3.16 µM) was over 10 µM and the IC50 (second compound 10 µM) was over 10 µM. The viability, T/C [1] was 97.6%, the viability, T/C [2] was 92.7% and the viability, T/C [3] was 89.8%. It also gave a viability, T/C [4] of 89.1%, a viability, T/C [5] of 84.7% and a viability, T/C [6] of 70.3%. The viability, T/C [7] was 84.4%, the viability, T/C [8] was 110% and the viability, T/C [9] was 88.1%. It also gave a viability, T/C [10] of 91.9%, a viability, T/C [11] of 79.6% and a viability, T/C [12] of 75.3%. The viability, T/C [13] was 92.6%, the viability, T/C [14] was 100% and the viability, T/C [15] was 89.8%. It also gave a viability, T/C [16] of 102%, a viability, T/C [17] of 87.8% and a viability, T/C [18] of 65.9%. It also gave a viability, T/C [19] of 104%, a viability, T/C [20] of 104% and a viability, T/C [21] of 96.2%. It also gave a viability, T/C [22] of 98.1%, a viability, T/C [23] of 81.2% and a viability, T/C [24] of 74%. It also gave a viability, T/C [25] of 106%, a viability, T/C [26] of 95% and a viability, T/C [27] of 98.2%. It also gave a viability, T/C [28] of 79.1%, a viability, T/C [29] of 83.5% and a viability, T/C [30] of 69.7%. It also gave a viability, T/C [31] of 104%, a viability, T/C [32] of 92.5% and a viability, T/C [33] of 93.9%. It also gave a viability, T/C [34] of 98.1%, a viability, T/C [35] of 83% and a viability, T/C [36] of 68.7%.

`CC1COCCN1c1cc(-c2ccnn2C)c2ccnc(-c3ccn[nH]3)c2n1` (stereo unspecified) + COC1C(OC(N)=O)C(O)C(Oc2ccc3c(O)c(NC(=O)c4ccc(O)c(CC=C(C)C)c4)c(=O)oc3c2C)OC1(C)C gave an IC50 (second compound 0.0316 µM) of 0.169 µM, an IC50 (second compound 0.1 µM) of 0.171 µM and an IC50 (second compound 0.316 µM) of 0.176 µM. It also gave an IC50 (second compound 1 µM) of 0.193 µM, an IC50 (second compound 3.16 µM) of 0.192 µM and an IC50 (second compound 10 µM) of 0.183 µM. The viability, T/C [1] was 107%, the viability, T/C [2] was 71.5% and the viability, T/C [3] was 24.6%. It also gave a viability, T/C [4] of 9.79%, a viability, T/C [5] of 8.71% and a viability, T/C [6] of 8.63%. The viability, T/C [7] was 108%, the viability, T/C [8] was 73% and the viability, T/C [9] was 23.4%. The viability, T/C [10] was 11.9%, the viability, T/C [11] was 9.78% and the viability, T/C [12] was 9.2%. It also gave a viability, T/C [13] of 104%, a viability, T/C [14] of 74.5% and a viability, T/C [15] of 24.1%. The viability, T/C [16] was 13.5%, the viability, T/C [17] was 11.3% and the viability, T/C [18] was 6.39%. The viability, T/C [19] was 104%, the viability, T/C [20] was 85.4% and the viability, T/C [21] was 23.1%. It also gave a viability, T/C [22] of 13.3%, a viability, T/C [23] of 8.72% and a viability, T/C [24] of 7.58%. It also gave a viability, T/C [25] of 111%, a viability, T/C [26] of 85% and a viability, T/C [27] of 22.9%. It also gave a viability, T/C [28] of 11%, a viability, T/C [29] of 6.98% and a viability, T/C [30] of 7.28%. It also gave a viability, T/C [31] of 118%, a viability, T/C [32] of 81.5% and a viability, T/C [33] of 21.1%. For the same molecule, the viability, T/C [34] was 10.7%, the viability, T/C [35] was 9.81% and the viability, T/C [36] was 7.1%.

`CCCS(=O)(=O)Nc1ccc(F)c(C(=O)c2c[nH]c3ncc(-c4ccc(Cl)cc4)cc23)c1F` + COC1C(OC(N)=O)C(O)C(Oc2ccc3c(O)c(NC(=O)c4ccc(O)c(CC=C(C)C)c4)c(=O)oc3c2C)OC1(C)C gave an IC50 (second compound 0.0316 µM) of 5.93 µM, an IC50 (second compound 0.1 µM) of 5.85 µM and an IC50 (second compound 0.316 µM) of 5.94 µM. For the same molecule, the IC50 (second compound 1 µM) was 5.47 µM, the IC50 (second compound 3.16 µM) was 5.74 µM and the IC50 (second compound 10 µM) was 5.88 µM. For the same molecule, the viability, T/C [1] was 112%, the viability, T/C [2] was 94.6% and the viability, T/C [3] was 113%. It also gave a viability, T/C [4] of 116%, a viability, T/C [5] of 113% and a viability, T/C [6] of 0.27%. For the same molecule, the viability, T/C [7] was 117%, the viability, T/C [8] was 108% and the viability, T/C [9] was 115%. The viability, T/C [10] was 107%, the viability, T/C [11] was 106% and the viability, T/C [12] was 1.29%. The viability, T/C [13] was 118%, the viability, T/C [14] was 96.7% and the viability, T/C [15] was 114%. It also gave a viability, T/C [16] of 107%, a viability, T/C [17] of 109% and a viability, T/C [18] of 1.4%. It also gave a viability, T/C [19] of 119%, a viability, T/C [20] of 117% and a viability, T/C [21] of 108%. It also gave a viability, T/C [22] of 94.2%, a viability, T/C [23] of 98.7% and a viability, T/C [24] of 0.24%. It also gave a viability, T/C [25] of 102%, a viability, T/C [26] of 111% and a viability, T/C [27] of 110%. For the same molecule, the viability, T/C [28] was 118%, the viability, T/C [29] was 103% and the viability, T/C [30] was 0.36%. The viability, T/C [31] was 108%, the viability, T/C [32] was 108% and the viability, T/C [33] was 96.2%. For the same molecule, the viability, T/C [34] was 116%, the viability, T/C [35] was 110% and the viability, T/C [36] was 0.68%.
